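96-well plates; 48 h exposure; 5 concentrations. Endpoints by linear interpolation between flanking doses. Not reached: highest tested concentration assigned. Abbreviation: GI50, concentration required for 50% inhibition of growth.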 The source made the active and inactive calls. Cut-off read from the data, not from the text of the source: active = GI50 up to about 1.1 µM and inactive = higher.
Experiments:
Experiment in all cases: NCI anticancer screen, dose series, 48 h
[1] = system: U-251
[2] = system: HCC 2998
[3] = system: MOLT-4
[4] = system: HT-29
[5] = system: M14
[6] = system: EKVX
[7] = system: IGROV-1
[8] = system: NCI-H226
[9] = system: MDA-N
[10] = system: OVCAR-3
[11] = system: HCT-15
[12] = system: KM12
[13] = system: SK-OV-3
[14] = system: UACC-62
[15] = system: OVCAR-8
[16] = system: ACHN
[17] = system: 786-0
[18] = system: SF-539
[19] = system: BT-549
[20] = system: SF-268
[21] = system: SW-620
[22] = system: K562
[23] = system: UO-31
[24] = system: UACC-257
[25] = system: SN12C
[26] = system: HOP-62
[27] = system: MDA-MB-231
[28] = system: SK-MEL-5
[29] = system: SR
[30] = system: HOP-92
[31] = system: MDA-MB-435
[32] = system: LOX IMVI
[33] = system: CCRF-CEM
[34] = system: NCI-H522
[35] = system: COLO 205
[36] = system: Malme-3M
[37] = system: TK-10
[38] = system: RPMI-8226
[39] = system: CAKI-1
[40] = system: MCF7
[41] = system: HCT-116
[42] = system: DU-145
[43] = system: OVCAR-4
[44] = system: PC-3
[45] = system: NCI/ADR-RES
[46] = system: T47D
[47] = system: OVCAR-5
[48] = system: A498
[49] = system: A549
[50] = system: SK-MEL-2
[51] = system: NCI-H23
[52] = system: SF-295
[53] = system: NCI-H460
[54] = system: SNB-19
[55] = system: SK-MEL-28
[56] = system: HL-60
[57] = system: SNB-75
[58] = system: RXF 393

For `CCCCNC(=S)Nc1nc(C(=O)NNC(=S)NC2CCCCC2)cs1`, the GI50 [1] was 91.4 µM (inactive), the GI50 [2] was > 100 µM (inactive) and the GI50 [3] was > 10 µM (inactive). The GI50 [4] was > 100 µM (inactive), the GI50 [5] was > 100 µM (inactive) and the GI50 [6] was > 100 µM (inactive). The GI50 [7] was 66.5 µM (inactive), the GI50 [8] was > 100 µM (inactive) and the GI50 [9] was > 100 µM (inactive). The GI50 [10] was 91.8 µM (inactive), the GI50 [11] was 32.7 µM and the GI50 [12] was > 100 µM (inactive). For the same compound, the GI50 [13] was 49 µM (inactive), the GI50 [14] was > 100 µM (inactive) and the GI50 [15] was 69.3 µM (inactive). The GI50 [16] was 62.7 µM (inactive), the GI50 [17] was > 100 µM (inactive) and the GI50 [18] was > 100 µM (inactive). For the same compound, the GI50 [19] was > 100 µM (inactive), the GI50 [20] was > 100 µM (inactive) and the GI50 [21] was > 100 µM (inactive). For the same compound, the GI50 [22] was 75.5 µM (inactive), the GI50 [23] was 45.6 µM (inactive) and the GI50 [24] was > 100 µM (inactive). For the same compound, the GI50 [25] was > 100 µM (inactive), the GI50 [26] was > 100 µM (inactive) and the GI50 [27] was > 100 µM (inactive). The GI50 [28] was 67.6 µM (inactive), the GI50 [29] was 8.07 µM (inactive) and the GI50 [30] was > 100 µM (inactive). The GI50 [31] was > 100 µM (inactive), the GI50 [32] was > 100 µM (inactive) and the GI50 [33] was 67.6 µM (inactive). The GI50 [34] was > 100 µM (inactive), the GI50 [35] was > 100 µM (inactive) and the GI50 [36] was > 100 µM (inactive). For the same compound, the GI50 [37] was > 100 µM (inactive), the GI50 [38] was > 100 µM (inactive) and the GI50 [39] was > 100 µM (inactive). The GI50 [40] was > 100 µM (inactive), the GI50 [41] was > 100 µM (inactive) and the GI50 [42] was > 100 µM (inactive). The GI50 [43] was > 100 µM (inactive), the GI50 [44] was > 100 µM (inactive) and the GI50 [45] was 74.3 µM (inactive). The GI50 [46] was > 100 µM (inactive), the GI50 [47] was > 100 µM (inactive) and the GI50 [48] was > 100 µM (inactive). The GI50 [49] was > 100 µM (inactive), the GI50 [50] was > 100 µM (inactive) and the GI50 [51] was > 100 µM (inactive). The GI50 [52] was > 100 µM (inactive).

In the case of `C1CSCCSCCCSC2CCCCC2SC1` (configuration not stated), the GI50 [1] is reported as > 100 µM (inactive), the GI50 [2] is reported as > 100 µM (inactive) and the GI50 [3] is reported as 26 µM (inactive). The GI50 [4] was 25.4 µM (inactive), the GI50 [5] was > 100 µM (inactive) and the GI50 [6] was > 100 µM (inactive). The GI50 [53] was > 100 µM (inactive), the GI50 [7] was > 100 µM (inactive) and the GI50 [9] was > 100 µM (inactive). For the same compound, the GI50 [10] was > 100 µM (inactive), the GI50 [11] was greater than 100 µM and the GI50 [12] was > 100 µM (inactive). The GI50 [13] was > 100 µM (inactive), the GI50 [14] was > 100 µM (inactive) and the GI50 [15] was > 100 µM (inactive). The GI50 [17] was > 100 µM (inactive), the GI50 [18] was > 100 µM (inactive) and the GI50 [19] was > 100 µM (inactive). For the same compound, the GI50 [20] was > 100 µM (inactive), the GI50 [21] was > 100 µM (inactive) and the GI50 [54] was > 100 µM (inactive). The GI50 [22] was 45 µM (inactive), the GI50 [23] was > 100 µM (inactive) and the GI50 [24] was > 100 µM (inactive). For the same compound, the GI50 [25] was > 100 µM (inactive), the GI50 [26] was > 100 µM (inactive) and the GI50 [27] was 60 µM (inactive). The GI50 [28] was 43.2 µM (inactive), the GI50 [55] was > 100 µM (inactive) and the GI50 [29] was 46.5 µM (inactive). For the same compound, the GI50 [30] was 34.4 µM (inactive), the GI50 [31] was > 100 µM (inactive) and the GI50 [32] was > 100 µM (inactive). The GI50 [56] was 17.3 µM (inactive), the GI50 [33] was > 100 µM (inactive) and the GI50 [34] was > 100 µM (inactive). The GI50 [35] was 86.3 µM (inactive), the GI50 [37] was > 100 µM (inactive) and the GI50 [38] was 45.4 µM (inactive). For the same compound, the GI50 [40] was > 100 µM (inactive), the GI50 [41] was > 100 µM (inactive) and the GI50 [57] was > 100 µM (inactive). For the same compound, the GI50 [42] was > 100 µM (inactive), the GI50 [43] was > 100 µM (inactive) and the GI50 [44] was 68.2 µM (inactive). The GI50 [45] was 83.9 µM (inactive), the GI50 [46] was > 100 µM (inactive) and the GI50 [47] was > 100 µM (inactive). The GI50 [49] was > 100 µM (inactive), the GI50 [51] was 80.5 µM (inactive) and the GI50 [52] was > 100 µM (inactive).

In the case of `N#C/C(=C/NC(N)=S)C(N)=O`, the GI50 [1] is reported as > 100 µM (inactive), the GI50 [2] is reported as > 100 µM (inactive) and the GI50 [4] is reported as > 100 µM (inactive). The GI50 [5] was > 100 µM (inactive), the GI50 [6] was > 100 µM (inactive) and the GI50 [53] was > 100 µM (inactive). For the same compound, the GI50 [7] was > 100 µM (inactive), the GI50 [8] was > 100 µM (inactive) and the GI50 [9] was > 100 µM (inactive). For the same compound, the GI50 [10] was > 100 µM (inactive), the GI50 [11] was greater than 100 µM and the GI50 [12] was > 100 µM (inactive). For the same compound, the GI50 [13] was > 100 µM (inactive), the GI50 [15] was > 100 µM (inactive) and the GI50 [16] was > 100 µM (inactive). The GI50 [17] was > 100 µM (inactive), the GI50 [18] was > 100 µM (inactive) and the GI50 [19] was > 100 µM (inactive). The GI50 [20] was > 100 µM (inactive), the GI50 [21] was > 100 µM (inactive) and the GI50 [54] was > 100 µM (inactive). The GI50 [23] was > 100 µM (inactive), the GI50 [24] was > 100 µM (inactive) and the GI50 [25] was > 100 µM (inactive). For the same compound, the GI50 [26] was > 100 µM (inactive), the GI50 [27] was > 100 µM (inactive) and the GI50 [28] was > 100 µM (inactive). The GI50 [55] was > 100 µM (inactive), the GI50 [30] was > 100 µM (inactive) and the GI50 [31] was > 100 µM (inactive). For the same compound, the GI50 [32] was > 100 µM (inactive), the GI50 [56] was > 100 µM (inactive) and the GI50 [35] was > 100 µM (inactive). For the same compound, the GI50 [37] was > 100 µM (inactive), the GI50 [39] was > 100 µM (inactive) and the GI50 [40] was > 100 µM (inactive). The GI50 [58] was > 100 µM (inactive), the GI50 [41] was > 100 µM (inactive) and the GI50 [57] was > 100 µM (inactive). For the same compound, the GI50 [42] was > 100 µM (inactive), the GI50 [43] was > 100 µM (inactive) and the GI50 [45] was > 100 µM (inactive). The GI50 [46] was > 100 µM (inactive), the GI50 [47] was > 100 µM (inactive) and the GI50 [48] was > 100 µM (inactive). For the same compound, the GI50 [49] was > 100 µM (inactive), the GI50 [50] was > 100 µM (inactive) and the GI50 [51] was > 100 µM (inactive). For the same compound, the GI50 [52] was > 100 µM (inactive).

In the case of `CCCCN1C(=O)c2c(Br)sc(Br)c2C1=O`, the GI50 [1] is reported as 39.1 µM (inactive), the GI50 [2] is reported as 33.8 µM (inactive) and the GI50 [3] is reported as 24.2 µM (inactive). The GI50 [4] was 23.3 µM (inactive), the GI50 [5] was 31.1 µM (inactive) and the GI50 [6] was 70.1 µM (inactive). For the same compound, the GI50 [53] was 31.6 µM (inactive), the GI50 [7] was 31.6 µM (inactive) and the GI50 [8] was 51.1 µM (inactive). The GI50 [9] was 33 µM (inactive), the GI50 [11] was 25.7 µM and the GI50 [12] was 25.1 µM (inactive). The GI50 [13] was 37.6 µM (inactive), the GI50 [14] was 32.4 µM (inactive) and the GI50 [15] was 38.9 µM (inactive). For the same compound, the GI50 [16] was 47.8 µM (inactive), the GI50 [17] was 37 µM (inactive) and the GI50 [18] was 24.2 µM (inactive). For the same compound, the GI50 [19] was 61.9 µM (inactive), the GI50 [20] was 31.8 µM (inactive) and the GI50 [21] was 24.8 µM (inactive). For the same compound, the GI50 [54] was 51.5 µM (inactive), the GI50 [22] was 30.5 µM (inactive) and the GI50 [23] was 33.9 µM (inactive). For the same compound, the GI50 [24] was 30.4 µM (inactive), the GI50 [25] was 34.5 µM (inactive) and the GI50 [26] was 26.6 µM (inactive). For the same compound, the GI50 [27] was 26.9 µM (inactive), the GI50 [28] was 39.5 µM (inactive) and the GI50 [55] was 43.9 µM (inactive). The GI50 [29] was 21.2 µM (inactive), the GI50 [31] was 37.4 µM (inactive) and the GI50 [32] was 32.6 µM (inactive). The GI50 [33] was 26.3 µM (inactive), the GI50 [34] was 0.391 µM (active) and the GI50 [35] was 19.5 µM (inactive). For the same compound, the GI50 [36] was 33.2 µM (inactive), the GI50 [37] was 60 µM (inactive) and the GI50 [38] was 29.3 µM (inactive). For the same compound, the GI50 [39] was 67.8 µM (inactive), the GI50 [40] was 20.2 µM (inactive) and the GI50 [58] was 52 µM (inactive). For the same compound, the GI50 [41] was 24.9 µM (inactive), the GI50 [57] was 29.5 µM (inactive) and the GI50 [42] was 36.4 µM (inactive). The GI50 [43] was 25.7 µM (inactive), the GI50 [44] was 28.8 µM (inactive) and the GI50 [45] was 30.9 µM (inactive). For the same compound, the GI50 [46] was 57.7 µM (inactive), the GI50 [47] was 30.4 µM (inactive) and the GI50 [48] was 50.6 µM (inactive). For the same compound, the GI50 [49] was 25.8 µM (inactive), the GI50 [50] was 46 µM (inactive) and the GI50 [51] was 44.3 µM (inactive). For the same compound, the GI50 [52] was 43.1 µM (inactive).
